According to ChEMBL document CHEMBL1141387, “Molecular-docking-guided design, synthesis, and biologic evaluation of radioiodinated quinazolinone prodrugs” (J Med Chem, 2007):
In brackets after ≈: the same amount, converted by molar mass.

Assays:
[1] = Solubility in phosphate buffer by radiotracer analysis method; assay type: physicochemical
[2] = PLAP-mediated conversion of prodrug to drug; assay type: ADME
[3] = Aqueous solubility by radiotracer analysis method; assay type: physicochemical; settings: buffer

Structure (SMILES) | solubility [1] | Activity [2] | solubility [3]
N.N.N.N.O=P(O)(O)Oc1ccc(-c2nc(O)c3cc([127I])ccc3n2)c(OP(=O)(O)O)c1 | 4350 µg/mL | Active | –
O=c1[nH]c(-c2ccc(O)cc2O)nc2ccc([127I])cc12 | – | – | 0.00968 µg/mL (≈ 0.0255 µM)
N.N.N.N.O=c1[nH]c(-c2ccc(OP(=O)(O)O)cc2OP(=O)(O)O)nc2ccc([125I])cc12 | – | Active | –
